Tested on: CREF/RasV12
Test: Apoptosis by flow cytometry (cells with hypodiploid DNA content) in Ras-transformed fibroblasts
Type: cell-based, rat

SMILES | lovastatin-induced apoptosis in the presence of translational inhibitors | apoptosis observed in the presence of lovastatin alone (5 μM lovastatin, 24 h) [%]
C[C@@H]1C[C@@H]([C@H](O)CC2CC(=O)NC(=O)C2)C(=O)[C@@H](C)C1 [cycloheximide] | blocked apoptosis | –
CC[C@H](C)C(=O)O[C@H]1C[C@@H](C)C=C2C=C[C@H](C)[C@H](CC[C@@H]3C[C@@H](O)CC(=O)O3)[C@H]21 [lovastatin] | – | 2 to 8

Source: patent publication US20030144190A1, “Method of modulating and antiapoptotic and antiapoptotic pathways in cells” (priority 2003, published 2003)
